Source: patent publication US6583154B1, “Compounds and methods which modulate feeding behavior and related diseases” (Amgen Inc., priority 1998, dated 2003)

| SMILES | melting point [°C] |
| --- | --- |
| Cc1nc(N2CCCCC2)c2[nH]c(-c3cccc(F)c3)cc2n1.Cl (hydrate or solvate) [Example 103, 6-(3-Fluorophenyl)-2-methyl-4-piperidylpyrrolo[3,2-d]pyrimidine Hydrochloride Monohydrate] | > 285 |
| Cc1nc(N2CCCCC2)c2[nH]c(C)cc2n1.Cl (hydrate or solvate) [Example 104, 2,6-Dimethyl-4-piperidylpyrrolo[3,2-d]pyrimidine Hydrochloride Hydrate] | 244 to 245.5 |
| Cc1nc(N2CCCCC2)c2[nH]c(-c3cc(C)oc3C)cc2n1.Cl (hydrate or solvate) [Example 108, 2,5-Dimethyl-3-(2-methyl-4-piperidylpyrrolo[4,5-d]pyrimidin-6-yl)furan Hydrochloride Monohydrate] | 238 to 240 |
| Cc1nc(N2CCCCC2)c2[nH]c(-c3cc(F)c(F)c(F)c3)cc2n1.Cl (hydrate or solvate) [Example 116, 2-Methyl-4-piperidyl-6-(3,4,5-trifluorophenyl)pyrrolo[3,2-d]pyrimidine Hydrochloride Hydrate] | > 280 |
| Cc1nc(N2CCCCC2)c2[nH]c(-c3ccc(Cl)c(Cl)c3)cc2n1.Cl (hydrate or solvate) [Example 118, 6-(3,4-Dichlorophenyl)-2-methyl-4-piperidylpyrrolo[3,2-d]pyrimidine Hydrochloride Monohydrate] | 265 to 268 |
| Cc1nc(N2CCCCC2)c2[nH]c(-c3ccc(F)c(F)c3)cc2n1.Cl (hydrate or solvate) [Example 121, 6-(3,4-Difluorophenyl)-2-methyl-4-piperidylpyrrolo[3,2-d]pyrimidine Hydrochloride Hydrate] | 243 to 245 |
| Cc1nc(N2CCCCC2)c2[nH]c(-c3ccc(SC(F)(F)F)cc3)cc2n1.Cl (hydrate or solvate) [Example 123, Trifluoro[4-(2-methyl-4-piperidylpyrrolo[4,5-d]pyrimidin-6-yl)phenylthio]methane Hydrochloride Monohydrate] | 270 to 272 |
| Cc1nc(N2CCCCC2)c2[nH]c(-c3ccc(C)c(C)c3)cc2n1.Cl (hydrate or solvate) [Example 124, 6-(3,4-Dimethylphenyl)-2-methyl-4-piperidylpyrrolo[3,2-d]pyrimidine Hydrochloride Hydrate] | 198 to 201 |
| Cc1nc(N2CCCCC2)c2[nH]c(-c3ccc4c(c3)OCCO4)cc2n1.Cl (hydrate or solvate) [Example 125, 6-(2-Methyl-4-piperidylpyrrolo[4,5-d]pyrimidin-6-yl)-2H,3H-benzo[e]1,4-dioxane Hydrochloride Monohydrate] | > 280 |
| Cc1nc(N2CCCCC2)c2[nH]c(-c3ccc4c(c3)CCC4)cc2n1.Cl (hydrate or solvate) [Example 130, 6-Indan-5-yl-2-methyl-4-piperidylpyrrolo[3,2-d]pyrimidine Hydrochloride Monohydrate] | 164 to 167 |
| Cc1nc(N2CCCCC2)c2[nH]c(-c3ccc4c(c3)CCO4)cc2n1.Cl (hydrate or solvate) [Example 131, 5-[2-Methyl-4-piperidylpyrrolo[4,5-d]pyrimidin-6-yl]-2,3-dihydrobenzo[b]furan Hydrochloride Hydrate] | 170 to 172 |
| Cc1nc(N2CCCCC2)c2[nH]c(-c3ccc(F)cc3)c(C)c2n1.Cl (hydrate or solvate) [Example 134, 6-(4-Fluorophenyl)-2,7-dimethyl-4-piperidylpyrrolo[3,2-d]pyrimidine Hydrochloride Hydrate] | > 280 |
| Cc1nc(N2CCCCC2)c2[nH]c(-c3ccc(O)cc3)c(C)c2n1.Cl (hydrate or solvate) [Example 137, 4-[2,7-Dimethyl-4-piperidylpyrrolo[4,5-d]pyrimidin-6-yl]phenol Hydrochloride Hydrate] | > 280 |
| Cc1nc(N2CCCCC2)c2[nH]c(CCc3ccccc3)cc2n1.Cl (hydrate or solvate) [Example 168, 2-Methyl-6-(2-phenylethyl)-4-piperidylpyrrolo[3,2-d]pyrimidine Hydrochloride Hydrate] | 236 to 238 |

Now from value to compound:

| melting point [°C] | SMILES |
| --- | --- |
| 183 to 185.5 | Cc1nc(N2CCCCC2)c2[nH]c(-c3ccn(S(=O)(=O)c4ccccc4)c3)cc2n1.Cl (hydrate or solvate) [Example 101, 3-(2-Methyl-4-piperidylpyrrolo[4,5-d]pyrimidin-6-yl)-1-(phenylsulfonyl)pyrrole Hydrochloride Hydrate] |
| 287 to 289 | Cc1nc(N2CCCCC2)c2[nH]c(-c3ccccc3F)cc2n1.Cl (hydrate or solvate) [Example 102, 6-(2-Fluorophenyl)-2-methyl-4-piperidylpyrrolo[3,2-d]pyrimidine Hydrochloride Monohydrate] |
| 241 to 243 | Cc1nc(N2CCCCC2)c2[nH]c(-c3cccc(C(F)(F)F)c3)cc2n1.Cl (hydrate or solvate) [Example 107, 2-Methyl-4-piperidyl-6-[3-(trifluoromethyl)phenyl]pyrrolo[3,2-d]pyrimidine Hydrochloride Monohydrate] |
| 278 to 280 | Cc1nc(N2CCCCC2)c2[nH]c(-c3ccc(C(F)(F)F)cc3)cc2n1.Cl (hydrate or solvate) [Example 111, 2-Methyl-4-piperidyl-6-[4-(trifluoromethyl)phenyl]pyrrolo[3,2-d]pyrimidine Hydrochloride Hydrate] |
| > 280 | Cc1nc(N2CCCCC2)c2[nH]c(-c3ccc4c(c3)OCO4)cc2n1.Cl (hydrate or solvate) [Example 114, 5-[2-Methyl-4-piperidylpyrrolo[4,5-d]pyrimidin-6-yl]-2H-benzo[d]1,3-dioxolane Hydrochloride Monohydrate] |
| 262 to 264 | COc1ccc(-c2cc3nc(C)nc(N4CCCCC4)c3[nH]2)cc1F.Cl (hydrate or solvate) [Example 119, 2-Fluoro-1-methoxy-4-[2-methyl-4-piperidylpyrrolo[4,5-d]pyrimidin-6-yl]benzene Hydrochloride Hydrate] |
| 268 to 270 | COc1ccc(-c2cc3nc(C)nc(N4CCCCC4)c3[nH]2)cc1OC.Cl (hydrate or solvate) [Example 126, 1,2-Dimethoxy-4-(2-methyl-4-piperidylpyrrolo[4,5-d]pyrimidin-6-yl)benzene Hydrochloride Hydrate] |
| > 280 | Cc1nc(N2CCCCC2)c2[nH]c(-c3ccc4c(c3)Cc3ccccc3-4)cc2n1.Cl (hydrate or solvate) [Example 127, 6-Fluoren-2-yl-2-methyl-4-piperidylpyrrolo[3,2-d]pyrimidine Hydrochloride Hydrate] |
| 279 to 281 | Cc1nc(N2CCCCC2)c2[nH]c(-c3ccc(S(C)(=O)=O)cc3)cc2n1.Cl (hydrate or solvate) [Example 142, 1-[2-Methyl-4-piperidylpyrrolo[4,5-d]pyrimidin-6-yl]-4-(methylsulfonyl)benzene Hydrochloride Monohydrate] |
| > 280 | Cc1nc(N2CCCCC2)c2[nH]c(-c3ccc4ccccc4c3)cc2n1.Cl (hydrate or solvate) [Example 160, 2-Methyl-6-(2-naphthyl)-4-piperidylpyrrolo[3,2-d]pyrimidine Hydrochloride Hydrate] |
